Results from patent US6413956B1, “Substituted 4-oxo-quinoline-3-carboxamides” (Neurogen Corporation, priority 1999, dated 2002).

Compound | melting point [°C]
CCOc1ccc2[nH]cc(C(=O)NCCC(C)C)c(=O)c2c1 [compound 45, N-Isoamyl 6-ethoxy-4-oxo-1,4-dihydro-quinoline-3-carboxamide] | 180 to 183
CCOc1ccc2[nH]cc(C(=O)NCc3cccs3)c(=O)c2c1 [compound 41, N-[(2-Thienyl)methyl] 6-ethoxy-4-oxo-1,4-dihydro-quinoline-3-carboxamide] | 223 to 224
Cl.O=C(NCc1cccc(CN2CCOCC2)c1)c1c[nH]c2ccccc2c1=O | 203 to 208
Cc1ccc2[nH]cc(C(=O)NCc3cccc(CN4CCOCC4)c3)c(=O)c2c1 [compound 127, N-[3-(4-Morpholinylmethyl)benzyl]-6-methyl-4-oxo-1,4-dihydroquinoline-3-carboxamide] | 140 to 144
CCOc1ccc2[nH]cc(C(=O)NCc3cccc(F)c3)c(=O)c2c1 [compound 50, N-(3-Fluorobenzyl) 6-ethoxy-4-oxo-1,4-dihydro-quinoline-3-carboxamide] | 210 to 212
CCOc1ccc2[nH]cc(C(=O)NCc3ccc(CN(Cc4ccccc4)Cc4ccccc4)cc3)c(=O)c2c1 [compound 82, N-[4-(Dibenzylaminomethyl)benzyl] 6-ethoxy-4-oxo-1,4-dihydro-quinoline-3-carboxamide] | 162 to 164
CCOCCCNC(=O)c1c[nH]c2ccc(COC)cc2c1=O [compound 33, N-[(3-Ethoxy)propyl] 6-methoxymethyl-4-oxo-1,4-dihydro-quinoline-3-carboxamide] | 95 to 97
CCOc1ccc2[nH]cc(C(=O)NCc3ccc(CN4CCCCC4)cc3)c(=O)c2c1 [compound 102, N-{4-[(1-Piperidinyl)methyl]benzyl} 6-ethoxy-4-oxo-1,4-dihydroquinoline-3-carboxamide] | 172 to 174
COc1ccc2[nH]cc(C(=O)NCc3cccc(CN(C)Cc4ccccc4)c3)c(=O)c2c1 [compound 130, N-[3-(N-Benzyl-N-methylaminomethyl)benzyl]-6-methoxy-4-oxo-1,4-dihydroquinoline-3-carboxamide] | 186 to 188
CC(C)CCNC(=O)c1c[nH]c2ccccc2c1=O [compound 4, N-Isoamyl 4-oxo-1,4-dihydro-quinoline-3-carboxamide] | 180 to 181
